The assay concerns the target T1, Proteasome Macropain subunit MB1 (Homo sapiens) (UniProt P28074).
T1 sequence (whole entry): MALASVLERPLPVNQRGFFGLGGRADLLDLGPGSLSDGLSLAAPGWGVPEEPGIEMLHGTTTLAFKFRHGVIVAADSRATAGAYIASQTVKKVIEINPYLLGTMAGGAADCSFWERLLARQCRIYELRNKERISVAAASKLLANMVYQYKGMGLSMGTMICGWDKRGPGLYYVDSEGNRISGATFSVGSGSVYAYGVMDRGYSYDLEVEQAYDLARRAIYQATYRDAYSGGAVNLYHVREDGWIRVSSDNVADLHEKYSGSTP
Kind of assay: Inhibition of human 20S proteasome chymotryptic-like activity using Suc-LLVY-AMC as substrate assessed as fluorescence quinching control by fluorescence assay.

Calls of active or inactive are those of the source. The calls are words filed in the database; no cut-off is given here.

`Cc1cc(C)c2cc(-c3ccccc3)c(-c3ccccc3)nc2c1`: the inhibition entry was “inactive”.

These data come from ChEMBL document CHEMBL3804753, “Substituted quinolines as noncovalent proteasome inhibitors” (Bioorg Med Chem, 2016).
